According to patent US20260042764A1, “COMPOSITIONS AND METHODS FOR INHIBITION OF KRAS” (TheRas, Inc., priority 2022, published 2026):

Experiments:
[1] = tested on: GP2d cells (KRAS G12D); assay: Cell-based pERK HTRF assay in GP2d cell (Biological Example 2); details: GP2d, GP2d (KRAS G12D) cells, pERK HTRF
Procedure, shortened: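 Phospho-ERK in lysed cells was detected by HTRF using Eu cryptate and d2 antibodies, read between 4 and 24 h at room temperature. Prior to lysis, KRAS G12D GP2d cells, seeded the day before in DMEM with 10% FBS, were exposed to compounds for 60 min. Compounds were tested as 9-point half-log curves from 1 μM or 100 nM top, with 0.25% DMSO.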

[2] = biological target: T1, Avi-KRAS G12R (1-169) GppNHp/RAF1 RBD-3xFLAG (52-151) (Homo sapiens, UniProt P01116, G12R); assay: Raf1-KRAS G12R-GppNHP disruption HTRF assay (Biological Example 1); format: binding; details: KRAS G12R, GppNHp-loaded; Table 11
T1 construct: Avi-KRAS G12R (1-169)
Procedure, shortened: (§1)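 Percent activity versus DMSO (100%) was derived from HTRF signal after KRAS–RAF1 RBD protein mix was incubated 1 h at room temperature with shaking and detection reagents were added for a further 1 h.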

[3] = biological target: T2, Avi-KRAS G12V (1-169) GppNHp/RAF1 RBD-3xFLAG (52-151) (Homo sapiens, UniProt P01116, G12V); assay: Raf1-KRAS G12V-GppNHP disruption HTRF assay (Biological Example 1); format: binding; details: KRAS G12V, GppNHp-loaded; Table 11
T2 construct: Avi-KRAS G12V (1-169)
Procedure, shortened: as §1

[4] = biological target: T3, Avi-KRAS WT (1-169) GppNHp/RAF1 RBD-3xFLAG (52-151) (Homo sapiens, UniProt P01116); assay: Raf1-KRAS WT-GppNHP disruption HTRF assay (Biological Example 1); format: binding; details: KRAS WT, GppNHp-loaded; Table 11
T3 construct: Avi-KRAS WT (1-169)
Procedure, shortened: as §1

[5] = tested on: SW620 cells (KRAS G12V); assay: Cell-based pERK HTRF assay in SW620 cell (Biological Example 4); details: Homo sapiens, SW-620, SW620 (KRAS G12V) cells, pERK HTRF
Procedure, shortened: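 Read-out: HTRF pERK signal (excitation 320 nm, emission 615 nm) from lysates of SW620 cells after 4 h compound exposure. Dose range was 9 points, half-log steps from 1 μM, in 0.25% DMSO; antibody incubation ran 4–24 h at room temperature.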

[6] = biological target: T4, Avi-KRAS G12D (1-169) GppNHp/RAF1 RBD-3xFLAG (52-151) (Homo sapiens, UniProt P01116, G12D); assay: Raf1-KRAS G12D-GppNHP disruption HTRF assay (Biological Example 1); format: binding; details: KRAS G12D, GppNHp-loaded; Table 11
T4 construct: Avi-KRAS G12D (1-169)
Procedure, shortened: as §1

T4 sequence (P01116 1-169 isoform P01116-2 G12D): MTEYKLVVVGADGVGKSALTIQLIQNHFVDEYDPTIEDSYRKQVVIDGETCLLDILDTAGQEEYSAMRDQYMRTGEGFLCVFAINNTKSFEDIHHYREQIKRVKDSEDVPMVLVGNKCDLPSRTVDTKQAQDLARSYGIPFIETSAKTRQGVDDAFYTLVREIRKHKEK
T2 sequence (P01116 1-169 isoform P01116-2 G12V): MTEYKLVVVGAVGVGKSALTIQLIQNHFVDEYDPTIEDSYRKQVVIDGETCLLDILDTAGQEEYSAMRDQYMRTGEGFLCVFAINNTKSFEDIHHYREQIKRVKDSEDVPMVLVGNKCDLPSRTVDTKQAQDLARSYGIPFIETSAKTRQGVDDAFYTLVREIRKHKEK
T3 sequence (P01116 1-169 isoform P01116-2): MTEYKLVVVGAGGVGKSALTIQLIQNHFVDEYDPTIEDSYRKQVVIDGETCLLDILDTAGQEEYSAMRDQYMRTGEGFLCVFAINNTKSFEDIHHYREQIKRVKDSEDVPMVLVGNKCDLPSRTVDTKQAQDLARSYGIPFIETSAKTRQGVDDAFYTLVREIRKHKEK
T1 sequence (P01116 1-169 isoform P01116-2 G12R): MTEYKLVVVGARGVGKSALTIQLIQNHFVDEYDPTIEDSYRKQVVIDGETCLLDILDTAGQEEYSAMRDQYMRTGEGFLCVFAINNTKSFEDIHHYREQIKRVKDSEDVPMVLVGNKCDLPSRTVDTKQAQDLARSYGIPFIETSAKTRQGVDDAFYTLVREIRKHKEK

Compound | IC50 [1] [nM] | IC50 [2] [nM] | IC50 [3] [nM] | IC50 [4] [nM] | IC50 [5] [nM] | IC50 [6] [nM]
C[C@@H]1COC[C@H](C)N1c1nc(OC[C@@]23CCCN2C[C@H](F)C3)nc2c(F)c(-c3ccc(F)c4sc(N)c(C#N)c34)c(C(F)(F)F)cc12 [Compound 201] | < 100 | 100 to 1000 | 100 to 1000 | 100 to 1000 | < 100 | 100 to 1000
N#Cc1c(N)sc2c(F)ccc(-c3c(C(F)(F)F)cc4c(N5C6COCC5C6)nc(OC[C@@]56CCCN5C[C@H](F)C6)nc4c3F)c12 [Compound 202] | < 100 | 100 to 1000 | 100 to 1000 | 100 to 1000 | < 100 | 100 to 1000
N#Cc1c(N)sc2c(F)ccc(-c3c(C(F)(F)F)cc4c(N5CCCCC5)nc(OC[C@@]56CCCN5C[C@H](F)C6)nc4c3F)c12 [Compound 203] | < 100 | 100 to 1000 | 1000 to 10000 | 100 to 1000 | < 100 | 100 to 1000
N#Cc1c(N)sc2c(F)ccc(-c3c(C(F)(F)F)cc4c(N5CC6(CC6)C5)nc(OC[C@@]56CCCN5C[C@H](F)C6)nc4c3F)c12 [Compound 204] | 100 to 1000 | 1000 to 10000 | 1000 to 10000 | 1000 to 10000 | 100 to 1000 | 1000 to 10000
N#Cc1c(N)sc2c(F)ccc(-c3c(C(F)(F)F)cc4c(N5CC(F)(F)C5)nc(OC[C@@]56CCCN5C[C@H](F)C6)nc4c3F)c12 [Compound 205] | < 100 | 100 to 1000 | 100 to 1000 | 100 to 1000 | < 100 | 100 to 1000
CC(=O)N(C)[C@H]1CCN(c2nc(OC[C@@]34CCCN3C[C@H](F)C4)nc3c(F)c(-c4ccc(F)c5sc(N)c(C#N)c45)c(C(F)(F)F)cc23)C1 [Compound 206] | 100 to 1000 | 1000 to 10000 | 1000 to 10000 | 1000 to 10000 | 100 to 1000 | 1000 to 10000
CC(=O)N(C)[C@@H]1CCN(c2nc(OC[C@@]34CCCN3C[C@H](F)C4)nc3c(F)c(-c4ccc(F)c5sc(N)c(C#N)c45)c(C(F)(F)F)cc23)C1 [Compound 207] | < 100 | 100 to 1000 | 100 to 1000 | 100 to 1000 | 100 to 1000 | 100 to 1000
CN(C)C(=O)CN(C)c1nc(OC[C@@]23CCCN2C[C@H](F)C3)nc2c(F)c(-c3ccc(F)c4sc(N)c(C#N)c34)c(C(F)(F)F)cc12 [Compound 208] | < 100 | 1000 to 10000 | 100 to 1000 | 100 to 1000 | 100 to 1000 | 100 to 1000
CNC(=O)CN(C)c1nc(OC[C@@]23CCCN2C[C@H](F)C3)nc2c(F)c(-c3ccc(F)c4sc(N)c(C#N)c34)c(C(F)(F)F)cc12 [Compound 209] | < 100 | 100 to 1000 | 100 to 1000 | 100 to 1000 | 100 to 1000 | 100 to 1000
CC(=O)N1C[C@H]2CCN(c3nc(OC[C@@]45CCCN4C[C@H](F)C5)nc4c(F)c(-c5ccc(F)c6sc(N)c(C#N)c56)c(C(F)(F)F)cc34)[C@H]2C1 [Compound 210] | < 100 | 1000 to 10000 | 100 to 1000 | 100 to 1000 | 100 to 1000 | 1000 to 10000
CC(=O)N1C[C@@H]2CCN(c3nc(OC[C@@]45CCCN4C[C@H](F)C5)nc4c(F)c(-c5ccc(F)c6sc(N)c(C#N)c56)c(C(F)(F)F)cc34)[C@@H]2C1 [Compound 211] | < 100 | 1000 to 10000 | 1000 to 10000 | 100 to 1000 | 100 to 1000 | 100 to 1000
N#Cc1c(N)sc2c(F)ccc(-c3c(C(F)(F)F)cc4c(N5CCC5)nc(OC[C@@]56CCCN5C[C@H](F)C6)nc4c3F)c12 [Compound 212] | < 100 | 100 to 1000 | 100 to 1000 | 100 to 1000 | < 100 | 100 to 1000
